Reference: patent US9932381B2, “Exendin-4 derivatives as selective glucagon receptor agonists” (priority 2014, dated 2018)
Non-standard residues stand in square brackets, D forms with d. Residues, ends and D or L forms follow the SMILES beside them. Ala(4-thiazolyl) = N[C@@H](Cc1cscn1)C(=O)O; 1Nal = N[C@@H](Cc1cccc2ccccc12)C(=O)O; Nle = CCCC[C@H](N)C(=O)O

Columns and labels:
[1] = target: T1, human glucagon receptor (hGLUC R) (Homo sapiens, UniProt P47871); experiment: cAMP response (HTRF) of HEK-293 cells stably expressing human glucagon receptor; type: cell-based; conditions: Table 4; read-out: EC50 hGLUC R
T1 construct: expressed in transfected cells; host or cells: HEK-293
T1 sequence (P47871 26-477): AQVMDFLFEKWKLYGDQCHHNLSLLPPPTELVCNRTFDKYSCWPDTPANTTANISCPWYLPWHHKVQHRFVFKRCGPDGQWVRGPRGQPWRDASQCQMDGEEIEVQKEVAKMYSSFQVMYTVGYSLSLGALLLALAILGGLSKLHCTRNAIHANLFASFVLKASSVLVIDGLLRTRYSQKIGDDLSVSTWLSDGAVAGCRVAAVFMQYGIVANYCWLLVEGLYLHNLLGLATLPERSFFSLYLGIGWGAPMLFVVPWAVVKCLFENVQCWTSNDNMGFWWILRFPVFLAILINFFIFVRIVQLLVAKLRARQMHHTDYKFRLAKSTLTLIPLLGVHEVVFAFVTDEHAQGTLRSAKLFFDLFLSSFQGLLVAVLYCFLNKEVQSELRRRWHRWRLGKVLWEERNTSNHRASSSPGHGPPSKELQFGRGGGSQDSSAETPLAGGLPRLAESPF
Method: (§1) cAMP content of cells was determined using a kit from Cisbio Corp. (cat. no. 62AM4PEC) based on HTRF (Homogenous Time Resolved Fluorescence). For preparation, cells were split into T175 culture flasks and grown overnight to near confluency in medium (DMEM/10% FBS). Medium was then removed and cells washed with PBS lacking calcium and magnesium, followed by proteinase treatment with accutase (Sigma-Aldrich cat. no. A6964). Detached cells were washed and resuspended in assay buffer (1×HBSS; 20 mM HEPES, 0.1% BSA, 2 mM IBMX) and cellular density determined. They were then diluted to 400000 cells/ml and 25 μl-aliquots dispensed into the wells of 96-well plates. For measurement, 25 μl of test compound in assay buffer was added to the wells, followed by incubation for 30 minutes at room temperature.

[2] = target: T2, human GLP-1 receptor (hGLP-1 R) (Homo sapiens, UniProt P43220); experiment: cAMP response (HTRF) of HEK-293 cells stably expressing human GLP-1 receptor; type: cell-based; conditions: Table 4
T2 construct: expressed in transfected cells; host or cells: HEK-293
T2 sequence (P43220 24-463): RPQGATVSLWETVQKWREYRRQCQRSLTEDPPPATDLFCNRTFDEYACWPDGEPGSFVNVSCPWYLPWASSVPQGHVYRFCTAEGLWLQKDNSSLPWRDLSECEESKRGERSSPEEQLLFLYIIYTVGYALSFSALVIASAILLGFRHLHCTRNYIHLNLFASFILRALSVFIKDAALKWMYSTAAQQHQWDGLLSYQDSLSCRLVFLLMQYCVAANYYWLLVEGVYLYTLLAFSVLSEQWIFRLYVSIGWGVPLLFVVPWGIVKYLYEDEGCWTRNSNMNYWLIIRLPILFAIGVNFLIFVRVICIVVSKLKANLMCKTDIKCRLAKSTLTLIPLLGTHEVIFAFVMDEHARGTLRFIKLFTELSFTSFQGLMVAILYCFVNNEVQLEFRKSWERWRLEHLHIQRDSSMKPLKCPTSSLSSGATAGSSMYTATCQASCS
Method: as §1, with “temperature. After addition of HTRF reagents diluted in lysis buffer (kit components), the plates were incubated for 1 hr, followed by measurement of the fluorescence ratio at 665/620 nm. In vitro potency of agonists was quantified by determining the concentrations that caused 50% activation of maximal response (EC50).” for “temperature.”

SMILES | EC50 [1] [nM] | EC50 [2] [nM]
CC[C@H](C)[C@H](NC(=O)[C@H](Cc1ccccc1)NC(=O)[C@H](CCC(=O)O)NC(=O)[C@H](CCC(N)=O)NC(=O)[C@H](C)NC(=O)[C@H](CCCNC(=N)N)NC(=O)[C@H](CCCNC(=N)N)NC(=O)[C@H](CO)NC(=O)[C@H](CCC(=O)O)NC(=O)[C@H](CC(C)C)NC(=O)[C@H](CCC(N)=O)NC(=O)[C@H](CCCCN)NC(=O)[C@H](CO)NC(=O)[C@@H](NC(=O)[C@H](CC(=O)O)NC(=O)[C@H](CO)NC(=O)[C@@H](NC(=O)[C@H](Cc1ccccc1)NC(=O)[C@@H](NC(=O)CNC(=O)[C@H](CCC(N)=O)NC(=O)[C@H](CO)NC(=O)[C@@H](N)Cc1cscn1)[C@@H](C)O)[C@@H](C)O)[C@@H](C)CC)C(=O)N[C@@H](CCC(=O)O)C(=O)N[C@@H](Cc1c[nH]c2ccccc12)C(=O)N[C@@H](CC(C)C)C(=O)N[C@@H](CC(C)C)C(=O)N[C@@H](C)C(=O)N[C@H](C(=O)NCC(=O)N1CCC[C@H]1C(=O)N[C@@H](CCC(=O)O)C(=O)N[C@@H](CO)C(=O)NCC(=O)N[C@@H](C)C(=O)N1CCC[C@H]1C(=O)N1CCC[C@H]1C(=O)N1CCC[C@H]1C(=O)N[C@@H](CO)C(=O)O)[C@@H](C)O [SEQ ID NO 8, Tza-SQGTFTSDISKQLESRRAQEFIEWLLATGPESGAPPPS-OH] | 0.0022 | 5.8
CC[C@H](C)[C@H](NC(=O)[C@H](Cc1ccccc1)NC(=O)[C@H](CCC(=O)O)NC(=O)[C@H](CCC(N)=O)NC(=O)[C@H](C)NC(=O)[C@H](CCCNC(=N)N)NC(=O)[C@H](CCCNC(=N)N)NC(=O)[C@H](CO)NC(=O)[C@H](CCC(=O)O)NC(=O)[C@H](CC(C)C)NC(=O)[C@H](CCC(N)=O)NC(=O)[C@H](CCCCN)NC(=O)[C@H](CO)NC(=O)[C@H](Cc1cccc2ccccc12)NC(=O)[C@H](CC(=O)O)NC(=O)[C@H](CO)NC(=O)[C@@H](NC(=O)[C@H](Cc1ccccc1)NC(=O)[C@@H](NC(=O)CNC(=O)[C@H](CCC(N)=O)NC(=O)[C@H](CO)NC(=O)[C@@H](N)Cc1cscn1)[C@@H](C)O)[C@@H](C)O)C(=O)N[C@@H](CCC(=O)O)C(=O)N[C@@H](Cc1c[nH]c2ccccc12)C(=O)N[C@@H](CC(C)C)C(=O)N[C@@H](CC(C)C)C(=O)N[C@@H](C)C(=O)N[C@H](C(=O)NCC(=O)N1CCC[C@H]1C(=O)N[C@@H](CCC(=O)O)C(=O)N[C@@H](CO)C(=O)NCC(=O)N[C@@H](C)C(=O)N1CCC[C@H]1C(=O)N1CCC[C@H]1C(=O)N1CCC[C@H]1C(=O)N[C@@H](CO)C(=O)O)[C@@H](C)O [SEQ ID NO 11, Tza-S-Q-G-T-F-T-S-D-1Nal-SKQLESRRAQEFIEWLLATGPESGAPPPS-OH] (H-[Ala(4-thiazolyl)]SQGTFTSD[1Nal]SKQLESRRAQEFIEWLLATGPESGAPPPS-OH; N-terminus assumed) |  | 11.7

The remaining lines, values ahead:

EC50 [1] [nM] | EC50 [2] [nM] | SMILES
 | 3.3 | CC[C@H](C)[C@H](NC(=O)[C@H](Cc1ccccc1)NC(=O)[C@H](CCC(=O)O)NC(=O)[C@H](CCC(N)=O)NC(=O)[C@H](C)NC(=O)[C@H](CCCNC(=N)N)NC(=O)[C@H](CCCNC(=N)N)NC(=O)[C@H](CO)NC(=O)[C@H](CCC(=O)O)NC(=O)[C@H](CC(C)C)NC(=O)[C@H](CCC(N)=O)NC(=O)[C@H](CCCCN)NC(=O)[C@H](CO)NC(=O)[C@H](CC(C)C)NC(=O)[C@H](CC(=O)O)NC(=O)[C@H](CO)NC(=O)[C@@H](NC(=O)[C@H](Cc1ccccc1)NC(=O)[C@@H](NC(=O)CNC(=O)[C@H](CCC(N)=O)NC(=O)[C@H](CO)NC(=O)[C@@H](N)Cc1cscn1)[C@@H](C)O)[C@@H](C)O)C(=O)N[C@@H](CCC(=O)O)C(=O)N[C@@H](Cc1c[nH]c2ccccc12)C(=O)N[C@@H](CC(C)C)C(=O)N[C@@H](CC(C)C)C(=O)N[C@@H](C)C(=O)NCC(=O)NCC(=O)N1CCC[C@H]1C(=O)N[C@@H](CCC(=O)O)C(=O)N[C@@H](CO)C(=O)NCC(=O)N[C@@H](C)C(=O)N1CCC[C@H]1C(=O)N1CCC[C@H]1C(=O)N1CCC[C@H]1C(=O)N[C@@H](CO)C(=O)O [SEQ ID NO 4, Tza-SQGTFTSDLSKQLESRRAQEFIEWLLAGGPESGAPPPS-OH] (H-[Ala(4-thiazolyl)]SQGTFTSDLSKQLESRRAQEFIEWLLAGGPESGAPPPS-OH; N-terminus assumed)
0.0024 | 4.19 | CC[C@H](C)[C@H](NC(=O)[C@H](Cc1ccccc1)NC(=O)[C@H](CCC(=O)O)NC(=O)[C@H](CCC(N)=O)NC(=O)[C@H](C)NC(=O)[C@H](CCCNC(=N)N)NC(=O)[C@H](CCCNC(=N)N)NC(=O)[C@H](CO)NC(=O)[C@H](CCC(=O)O)NC(=O)[C@H](CC(C)C)NC(=O)[C@H](CCC(N)=O)NC(=O)[C@H](CCCCN)NC(=O)[C@H](CO)NC(=O)[C@@H](NC(=O)[C@H](CC(=O)O)NC(=O)[C@H](CO)NC(=O)[C@@H](NC(=O)[C@H](Cc1ccccc1)NC(=O)[C@@H](NC(=O)CNC(=O)[C@H](CCC(N)=O)NC(=O)[C@H](CO)NC(=O)[C@@H](N)Cc1cscn1)[C@@H](C)O)[C@@H](C)O)C(C)C)C(=O)N[C@@H](CCC(=O)O)C(=O)N[C@@H](Cc1c[nH]c2ccccc12)C(=O)N[C@@H](CC(C)C)C(=O)N[C@@H](CC(C)C)C(=O)N[C@@H](C)C(=O)N[C@H](C(=O)NCC(=O)N1CCC[C@H]1C(=O)N[C@@H](CCC(=O)O)C(=O)N[C@@H](CO)C(=O)NCC(=O)N[C@@H](C)C(=O)N1CCC[C@H]1C(=O)N1CCC[C@H]1C(=O)N1CCC[C@H]1C(=O)N[C@@H](CO)C(=O)O)[C@@H](C)O [SEQ ID NO 7, Tza-SQGTFTSDVSKQLESRRAQEFIEWLLATGPESGAPPPS-OH] (H-[Ala(4-thiazolyl)]SQGTFTSDVSKQLESRRAQEFIEWLLATGPESGAPPPS-OH; N-terminus assumed)
 | 19.7 | CCCC[C@H](NC(=O)[C@H](CCC(N)=O)NC(=O)[C@H](CCCCN)NC(=O)[C@H](CO)NC(=O)[C@H](CC(C)C)NC(=O)[C@H](CC(=O)O)NC(=O)[C@H](CO)NC(=O)[C@@H](NC(=O)[C@H](Cc1ccccc1)NC(=O)[C@@H](NC(=O)CNC(=O)[C@H](CCC(N)=O)NC(=O)[C@H](CO)NC(=O)[C@@H](N)Cc1cscn1)[C@@H](C)O)[C@@H](C)O)C(=O)N[C@@H](CCC(=O)O)C(=O)N[C@@H](CO)C(=O)N[C@@H](CCCNC(=N)N)C(=O)N[C@@H](CCCNC(=N)N)C(=O)N[C@@H](C)C(=O)N[C@@H](CCC(N)=O)C(=O)N[C@@H](CCC(=O)O)C(=O)N[C@@H](Cc1ccccc1)C(=O)N[C@H](C(=O)N[C@@H](CCC(=O)O)C(=O)N[C@@H](Cc1c[nH]c2ccccc12)C(=O)N[C@@H](CC(C)C)C(=O)N[C@@H](CC(C)C)C(=O)N[C@@H](C)C(=O)N[C@H](C(=O)NCC(=O)N1CCC[C@H]1C(=O)N[C@@H](CCC(=O)O)C(=O)N[C@@H](CO)C(=O)NCC(=O)N[C@@H](C)C(=O)N1CCC[C@H]1C(=O)N1CCC[C@H]1C(=O)N1CCC[C@H]1C(=O)N[C@@H](CO)C(=O)O)[C@@H](C)O)[C@@H](C)CC [SEQ ID NO 16, Tza-S-Q-G-T-F-T-S-D-L-S-K-Q-Nle-ESRRAQEFIEWLLATGPESGAPPPS-OH] (H-[Ala(4-thiazolyl)]SQGTFTSDLSKQ[Nle]ESRRAQEFIEWLLATGPESGAPPPS-OH; N-terminus assumed)
